Activity calls are given as the source filed them. No cut-off for these calls is given here.
Assays:
[1] = biological target: T1, Protein deacetylase HDAC6 (Homo sapiens, UniProt Q9UBN7); test: Inhibition of recombinant human HDAC6 using Boc-Lys (acetyl)-AMC as substrate preincubated with compound for 1 hr followed by substrate addition and measured after 30 mins by microplate reader assay
T1 sequence (Q9UBN7 whole entry): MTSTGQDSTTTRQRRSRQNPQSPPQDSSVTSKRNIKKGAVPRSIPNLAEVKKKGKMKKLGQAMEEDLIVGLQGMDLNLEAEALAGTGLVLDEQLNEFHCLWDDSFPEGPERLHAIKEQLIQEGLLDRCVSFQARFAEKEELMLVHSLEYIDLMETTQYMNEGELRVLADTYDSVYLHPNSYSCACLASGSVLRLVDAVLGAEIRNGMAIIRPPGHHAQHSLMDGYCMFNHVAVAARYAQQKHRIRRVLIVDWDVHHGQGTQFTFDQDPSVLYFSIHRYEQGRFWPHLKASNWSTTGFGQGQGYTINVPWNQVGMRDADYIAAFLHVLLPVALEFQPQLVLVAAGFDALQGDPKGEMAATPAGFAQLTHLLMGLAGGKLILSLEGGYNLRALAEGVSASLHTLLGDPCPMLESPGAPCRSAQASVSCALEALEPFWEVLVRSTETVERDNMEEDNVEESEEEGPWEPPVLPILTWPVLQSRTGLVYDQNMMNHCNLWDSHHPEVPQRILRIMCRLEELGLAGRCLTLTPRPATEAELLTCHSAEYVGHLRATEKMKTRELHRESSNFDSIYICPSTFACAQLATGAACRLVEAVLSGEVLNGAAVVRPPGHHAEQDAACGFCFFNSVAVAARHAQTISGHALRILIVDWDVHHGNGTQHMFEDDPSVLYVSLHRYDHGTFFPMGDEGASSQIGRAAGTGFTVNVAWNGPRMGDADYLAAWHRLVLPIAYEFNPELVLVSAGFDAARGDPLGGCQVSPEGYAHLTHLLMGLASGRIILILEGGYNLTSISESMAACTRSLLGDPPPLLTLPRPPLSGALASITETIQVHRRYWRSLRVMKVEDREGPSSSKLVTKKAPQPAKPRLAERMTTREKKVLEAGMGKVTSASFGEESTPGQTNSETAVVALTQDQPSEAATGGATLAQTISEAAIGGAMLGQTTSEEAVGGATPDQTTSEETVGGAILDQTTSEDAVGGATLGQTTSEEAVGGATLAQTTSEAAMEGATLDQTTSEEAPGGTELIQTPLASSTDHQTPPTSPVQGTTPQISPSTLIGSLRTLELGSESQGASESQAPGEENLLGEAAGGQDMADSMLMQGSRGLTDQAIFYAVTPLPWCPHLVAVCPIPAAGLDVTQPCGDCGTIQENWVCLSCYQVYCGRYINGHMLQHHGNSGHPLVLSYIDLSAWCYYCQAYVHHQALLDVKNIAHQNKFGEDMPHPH

Histone deacetylase 8 = Histone deacetylase 8 (Homo sapiens, UniProt Q9BY41); test: Inhibition of recombinant human HDAC8 using Boc-Lys (trifluroacetyl)-AMC as substrate preincubated with compound for 1 hr followed by substrate addition and measured after 30 mins by microplate reader assay
Sequence of Histone deacetylase 8 (Q9BY41 whole entry): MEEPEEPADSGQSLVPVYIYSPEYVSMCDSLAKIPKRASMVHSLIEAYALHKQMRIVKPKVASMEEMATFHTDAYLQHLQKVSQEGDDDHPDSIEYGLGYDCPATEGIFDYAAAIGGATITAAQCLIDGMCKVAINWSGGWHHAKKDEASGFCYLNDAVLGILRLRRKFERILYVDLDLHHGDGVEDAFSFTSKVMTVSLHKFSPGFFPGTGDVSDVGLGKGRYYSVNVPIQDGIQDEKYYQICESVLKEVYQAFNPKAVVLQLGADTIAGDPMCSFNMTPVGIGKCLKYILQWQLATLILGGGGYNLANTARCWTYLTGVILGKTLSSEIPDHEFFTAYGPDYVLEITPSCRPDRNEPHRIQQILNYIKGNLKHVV

Histone deacetylase 9 = Histone deacetylase 9 (Homo sapiens, UniProt Q9UKV0); test: Inhibition of recombinant human HDAC9 using Boc-Lys (trifluroacetyl)-AMC as substrate preincubated with compound for 1 hr followed by substrate addition and measured after 30 mins by microplate reader assay
Sequence of Histone deacetylase 9 (Q9UKV0 whole entry): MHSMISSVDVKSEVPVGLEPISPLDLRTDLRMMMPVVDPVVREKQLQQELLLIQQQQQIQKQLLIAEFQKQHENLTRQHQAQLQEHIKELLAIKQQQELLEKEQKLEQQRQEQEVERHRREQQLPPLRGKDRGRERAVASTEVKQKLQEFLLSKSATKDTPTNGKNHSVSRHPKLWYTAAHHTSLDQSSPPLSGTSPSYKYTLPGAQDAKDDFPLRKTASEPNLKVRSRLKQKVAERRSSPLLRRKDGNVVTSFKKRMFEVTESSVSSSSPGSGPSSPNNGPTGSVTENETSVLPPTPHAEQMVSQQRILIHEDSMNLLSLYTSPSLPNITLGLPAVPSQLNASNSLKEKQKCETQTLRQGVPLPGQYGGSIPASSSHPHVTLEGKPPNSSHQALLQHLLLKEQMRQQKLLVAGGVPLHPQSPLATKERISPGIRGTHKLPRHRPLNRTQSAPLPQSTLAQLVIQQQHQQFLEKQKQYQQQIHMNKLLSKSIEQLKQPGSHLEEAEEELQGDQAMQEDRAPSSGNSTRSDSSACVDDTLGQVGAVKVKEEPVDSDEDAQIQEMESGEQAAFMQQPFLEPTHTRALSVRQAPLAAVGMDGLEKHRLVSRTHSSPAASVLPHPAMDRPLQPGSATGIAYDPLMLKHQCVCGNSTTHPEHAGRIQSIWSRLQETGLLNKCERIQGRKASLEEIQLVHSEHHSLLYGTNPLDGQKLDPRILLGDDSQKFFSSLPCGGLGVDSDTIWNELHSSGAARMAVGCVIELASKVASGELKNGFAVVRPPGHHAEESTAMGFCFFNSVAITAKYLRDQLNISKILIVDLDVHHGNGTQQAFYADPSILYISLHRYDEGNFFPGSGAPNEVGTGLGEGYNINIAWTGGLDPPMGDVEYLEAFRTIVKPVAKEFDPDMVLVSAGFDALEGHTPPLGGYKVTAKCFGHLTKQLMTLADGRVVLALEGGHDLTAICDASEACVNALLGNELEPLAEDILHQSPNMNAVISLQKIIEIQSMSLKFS

[2] = biological target: Signal transducer and activator of transcription 3 (Homo sapiens, UniProt P40763); test: Binding affinity to STAT3 (unknown origin) assessed as dissociation constant by SPR assay
Sequence of Signal transducer and activator of transcription 3 (P40763 whole entry): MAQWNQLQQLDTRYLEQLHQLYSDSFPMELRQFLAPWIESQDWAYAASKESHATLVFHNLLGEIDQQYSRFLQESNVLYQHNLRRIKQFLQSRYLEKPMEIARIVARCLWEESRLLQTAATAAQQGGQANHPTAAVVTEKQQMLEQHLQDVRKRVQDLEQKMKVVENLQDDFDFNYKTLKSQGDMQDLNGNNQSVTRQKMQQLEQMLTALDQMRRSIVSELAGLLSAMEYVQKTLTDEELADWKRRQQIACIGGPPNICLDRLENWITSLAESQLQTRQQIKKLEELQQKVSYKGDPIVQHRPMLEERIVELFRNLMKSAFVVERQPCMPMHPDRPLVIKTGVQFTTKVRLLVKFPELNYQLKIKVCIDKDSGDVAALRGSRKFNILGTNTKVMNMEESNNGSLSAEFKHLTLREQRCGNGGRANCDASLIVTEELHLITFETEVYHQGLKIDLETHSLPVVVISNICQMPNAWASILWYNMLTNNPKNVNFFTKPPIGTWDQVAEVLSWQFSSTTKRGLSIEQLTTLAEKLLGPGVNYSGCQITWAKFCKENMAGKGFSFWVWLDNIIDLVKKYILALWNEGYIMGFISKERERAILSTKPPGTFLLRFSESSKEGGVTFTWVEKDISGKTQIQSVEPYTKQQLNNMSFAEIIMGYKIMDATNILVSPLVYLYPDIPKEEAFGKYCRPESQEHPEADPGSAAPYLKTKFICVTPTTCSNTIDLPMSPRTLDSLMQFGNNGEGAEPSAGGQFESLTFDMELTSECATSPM

HeLa = test: cells; type: functional, cell-based; details: Homo sapiens, 72 h
Description: Antiproliferative activity against human Hela cells assessed as inhibition of cell proliferation incubated for 72 hrs by CCK-8 assay

[3] = biological target: T2, Class 1 histone deacetylase (Homo sapiens) (UniProt Q13547+O15379+Q92769+Q9BY41); test: Inhibition of class 1 HDAC in human A549 cells assessed as increase in […] at 0.5 uM incubated for 12 hrs by Western blot analysis; type: cell-based
T2 sequence (O15379 whole entry, looked up): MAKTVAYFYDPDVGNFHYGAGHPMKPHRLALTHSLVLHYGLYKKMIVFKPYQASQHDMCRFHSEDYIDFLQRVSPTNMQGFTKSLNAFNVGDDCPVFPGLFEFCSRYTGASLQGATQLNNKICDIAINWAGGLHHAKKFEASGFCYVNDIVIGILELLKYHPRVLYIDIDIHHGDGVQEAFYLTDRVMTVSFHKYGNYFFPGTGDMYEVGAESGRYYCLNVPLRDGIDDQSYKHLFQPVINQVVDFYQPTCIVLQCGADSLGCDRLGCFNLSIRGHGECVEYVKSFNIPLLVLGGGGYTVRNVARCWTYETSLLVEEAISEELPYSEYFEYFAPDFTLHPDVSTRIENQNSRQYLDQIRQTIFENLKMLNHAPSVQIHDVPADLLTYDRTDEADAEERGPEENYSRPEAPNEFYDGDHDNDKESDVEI
T2 sequence (Q13547 whole entry, looked up): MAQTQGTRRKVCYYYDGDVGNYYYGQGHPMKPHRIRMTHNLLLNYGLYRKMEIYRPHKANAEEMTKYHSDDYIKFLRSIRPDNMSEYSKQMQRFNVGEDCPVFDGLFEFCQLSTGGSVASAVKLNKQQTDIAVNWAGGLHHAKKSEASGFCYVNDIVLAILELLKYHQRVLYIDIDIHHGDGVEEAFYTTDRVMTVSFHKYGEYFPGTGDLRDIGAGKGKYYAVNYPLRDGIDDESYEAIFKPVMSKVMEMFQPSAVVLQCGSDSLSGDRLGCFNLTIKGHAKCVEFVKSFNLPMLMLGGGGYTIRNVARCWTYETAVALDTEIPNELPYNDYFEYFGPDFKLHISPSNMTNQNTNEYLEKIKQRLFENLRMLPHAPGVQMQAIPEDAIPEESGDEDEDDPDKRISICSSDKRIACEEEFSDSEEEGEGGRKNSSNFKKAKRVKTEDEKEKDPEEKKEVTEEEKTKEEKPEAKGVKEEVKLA
T2 sequence (Q92769 whole entry, looked up): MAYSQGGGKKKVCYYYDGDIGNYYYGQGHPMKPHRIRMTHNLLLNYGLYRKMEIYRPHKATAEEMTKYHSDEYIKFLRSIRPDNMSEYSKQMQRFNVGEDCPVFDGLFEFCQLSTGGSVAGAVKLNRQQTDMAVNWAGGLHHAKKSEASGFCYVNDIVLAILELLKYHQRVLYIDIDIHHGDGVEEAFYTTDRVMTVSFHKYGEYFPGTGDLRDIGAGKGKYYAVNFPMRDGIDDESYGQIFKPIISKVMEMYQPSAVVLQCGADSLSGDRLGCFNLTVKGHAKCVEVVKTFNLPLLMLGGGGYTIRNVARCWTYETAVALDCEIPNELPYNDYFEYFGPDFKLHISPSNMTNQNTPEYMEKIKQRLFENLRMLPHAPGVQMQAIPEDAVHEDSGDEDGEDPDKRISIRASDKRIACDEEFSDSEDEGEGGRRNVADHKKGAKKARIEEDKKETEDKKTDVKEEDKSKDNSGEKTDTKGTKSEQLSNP
T2 sequence (Q9BY41 whole entry, looked up): as the sequence (Q9BY41 whole entry) above

[4] = biological target: T2, Class 1 histone deacetylase (Homo sapiens); test: Inhibition of class 1 HDAC in human A549 cells assessed as increase in Ac-histone H3 level at 0.5 uM incubated for 12 hrs by Western blot analysis; type: cell-based
[5] = biological target: Protein deacetylase HDAC6 (Homo sapiens) (UniProt Q9UBN7); test: Inhibition of HDAC6 in human A549 cells assessed as increase in Ac-tubulin at 0.5 uM incubated for 12 hrs by Western blot analysis; type: cell-based
A549 [6] = test: Effect on Bcl-2 protein level in human A549 cells at 4 uM incubated for 12 hrs by Western blot analysis; type: functional, cell-based
A549 [7] = test: Induction of apoptosis in human A549 cells assessed as early apoptotic cells at 2 uM incubated for 24 hrs by Annexin V-FITC/PI staining based flow cytometric analysis (reference value: 1.53%); type: functional
A549 [8] = test: Induction of apoptosis in human A549 cells assessed as late apoptotic cells at 2 uM incubated for 24 hrs by Annexin V-FITC/PI staining based flow cytometric analysis (reference value: 2.18%); type: functional
A549 [9] = test: Induction of apoptosis in human A549 cells assessed as necrotic cells at 2 uM incubated for 24 hrs by Annexin V-FITC/PI staining based flow cytometric analysis (reference value: 1.20%); type: functional
A549 [10] = test: Induction of apoptosis in human A549 cells at 4 uM incubated for 24 hrs by Annexin V-FITC/PI staining based flow cytometric analysis; type: functional
A549 [11] = test: In vivo antitumor activity against human A549 cells xenografted in female BALB/c nu/nu mouse assessed as tumor volume at 2.5 mg/kg, iv administered every 3 days and measured on 18 day relative to control; type: functional; details: time 3 day
[12] = Toxicity in female BALB/c nu/nu mouse xenografted with human A549 cells assessed as effect on heart at 5 mg/kg, iv by H and E staining based analysis; type: organism-based; details: in vivo
[13] = Toxicity in female BALB/c nu/nu mouse xenografted with human A549 cells assessed as effect on kidney at 5 mg/kg, iv by H and E staining based analysis; type: organism-based; details: in vivo
A549 [14] = test: Anticancer activity against human A549 cells assessed as cell viability incubated for 72 hrs using self assembled nanoparticle as source of compound by CCK-8 assay; type: functional, cell-based; details: A549, 72 h
[15] = Toxicity in female BALB/c nu/nu mouse xenografted with human A549 cells assessed as effect on body weight at 5 mg/kg, iv using self assembled nanoparticle as source of compound and measured regularly; type: organism-based; details: in vivo
[16] = Biodistribution in spleen of nude mouse xenografted with A549 cells at 5 mg/kg, iv using chlorine e6 loaded self-assembled nanoparticle as source of compound incubated for 24 hrs by ex-vivo fluorescence based LC-MS/MS analysis; type: ADME, organism-based
[17] = Biodistribution in kidney of nude mouse xenografted with A549 cells at 5 mg/kg, iv using chlorine e6 loaded self-assembled nanoparticle as source of compound incubated for 24 hrs by ex-vivo fluorescence based LC-MS/MS analysis; type: ADME, organism-based
[18] = Drug accumulation in tumor of nude mouse xenografted with A549 cells assessed as increase in fluorescence at 5 mg/kg, iv using chlorine e6 loaded self assembled nanoparticle as source of compound by in vivo fluorescence imaging

IC50 [1]: 7.69 nM | IC50 (Histone deacetylase 8): 1420 nM | IC50 (Histone deacetylase 9): > 10000 nM | Kd [2]: 2520 nM | IC50 (HeLa): 130 nM | inhibition [3]: Active | inhibition [4]: Active | inhibition [5]: Active | IC50 (A549 [14]): 69 nM | Drug uptake [16]: Active | Drug uptake [17]: Active | Drug uptake [18]: Active
SMILES: C=C1C(=O)O[C@@H]2C[C@@]3(C)CC[C@@H](OC(=O)[C@H](C)NC(=O)c4ccc(/C=C/C(=O)NO)cc4)C(=C)[C@@H]3C[C@H]12
Activity (A549 [6]): inactive | Activity (A549 [7]): 4.07% | Activity (A549 [8]): 11.86% | Activity (A549 [9]): 1.59% | Activity (A549 [10]): 40% | Activity (A549 [11]): 70.7% | Activity [12]: Non-Toxic | Activity [13]: Non-Toxic | Activity [15]: Non-Toxic

Source: ChEMBL document CHEMBL6071142, “Isoalantolactone/hydroxamic acid hybrids as potent dual STAT3/HDAC inhibitors and self-assembled nanoparticles for cancer therapy” (Eur J Med Chem, 2024)
